According to US9487504B2, “Imidazolyl analogs as syk inhibitors” (Merck Sharp & Dohme Corp., priority 2012, dated 2016):
Read-outs that look alike come from different tables or passages of the source.

Biological target: T1, recombinant human GST-Syk (Homo sapiens, UniProt P43405)
T1 construct: purchased Carna Biosciences 08-176
Assay: Homogeneous Time-Resolved Fluorescence (HTRF) assay for the recombinant human Syk enzyme
Format: biochemical
Conditions: ATP 25 μM, 10-dose titration
Method: Syk inhibition may be determined using the following assay protocol:
Homogeneous Time-Resolved Fluorescence (HTRF) Assay for the Recombinant Human Syk Enzyme:
A recombinant GST-hSyk fusion protein was used to measure potency of compounds to inhibit human Syk activity. The recombinant human GST-Syk (Carna Biosciences #08-176) ([…]) was incubated with various concentrations of the inhibitor diluted in DMSO (0.1% final concentration) for 10 minutes at room temperature in 15 mM Tris-HCl (pH 7.5), 0.01% tween 20, 2 mM DTT in 384 well plate format. To initiate the reaction the biotinylated substrate peptide (250 nM final concentration) that contains the phosphorylation site for Syk was added with magnesium (5 mM final concentration) and ATP (25 μM final concentration). Final volume of the reaction was 10 μL. Phosphorylation of the peptide was allowed to proceed for 45 minutes at room temperature. To quench the reaction and detect the phosphorylated product, 2 nM of a Europium-anti-phosphotyrosine antibody (Perkin Elmer #AD0161) and 70 nM SA-APC (Perkin-Elmer #CR130-100) were added together in 15 mM Tris pH 7.5, 40 mM EDTA, 0.01% tween 20. Final volume of the quenching solution was 10 μL. The resulting HTRF signal was measured after 30 minutes on an EnVision (Perkin-Elmer) reader using a time-resolved fluorescence protocol. IC50 was determined following 10-dose titration (10 μM to 0.508 nM) and four parameter logistic curve fitting using the Merck Assay Data Analyzer. The rhSyk activity (IC50) is expressed as +++ (100 nM or less), ++ (between 100 and 1000 nM), + (between 1 and 10 μM).

Structure (SMILES) | IC50 (read-out: rhSYK Activity) | IC50 (read-out: rhSYK IC50)
Cc1cc(Nc2nccc(C(F)(F)F)n2)cc(-n2cnc([C@H]3CC[C@@H](C(=O)O)CC3)c2)c1 [2 (cis), Cis-4-[1-(3-methyl-5-{[4-(trifluoromethyl)pyrimidin-2-yl]amino}phenyl)-1H-imidazol-4-yl]cyclohexanecarboxylic acid] | ≤ 100 nM | 12.5 nM
Cc1cc(Nc2nccc(C(F)(F)F)n2)cc(-n2cnc([C@H]3CC[C@H](C(=O)O)CC3)c2)c1 [2 (trans), Trans-4-[1-(3-methyl-5-{[4-(trifluoromethyl)pyrimidin-2-yl]amino}phenyl)-1H-imidazol-4-yl]cyclohexanecarboxylic acid] | ≤ 100 nM | 1.2 nM
Cc1cc(Nc2nccc(C(F)(F)F)n2)cc(-n2cnc(C3=CCC(C(=O)O)CC3)c2)c1 (stereo not drawn) [Example 3, 4-[1-(3-methyl-5-{[4-(trifluoromethyl)pyrimidin-2-yl]amino}phenyl)-1H-imidazol-4-yl]cyclohex-3-ene-1-carboxylic acid] | ≤ 100 nM | 
Cc1cc(Nc2nccc(C(F)(F)F)n2)cc(-n2cnc(C3=CCC(C(=O)O)C(C)(C)C3)c2)c1 (stereo not drawn) [Example 4, 6,6-Dimethyl-4-[1-(3-methyl-5-{[4-(trifluoromethyl)pyrimidin-2-yl]amino}phenyl)-1H-imidazol-4-yl]cyclohex-3-ene-1-carboxylic acid] | ≤ 100 nM | 0.9 nM
Cc1cc(Nc2nccc(C(F)(F)F)n2)cc(-n2cnc(C3(O)CCC(CC(N)=O)CC3)c2)c1 (stereo not drawn) [Example 6, 2-{cis-4-hydroxy-4-[1-(3-methyl-5-{[4-(trifluoromethyl)pyrimidin-2-yl]amino}phenyl)-1H-imidazol-4-yl]cyclohexyl)acetamide] | ≤ 100 nM | 
Cc1cc(Nc2nccc(C3CC3)n2)cc(-n2cnc(C[C@H](O)C(=O)O)c2)c1 [Example 8, (2S)-3-(1-{3-[(4-cyclopropylpyrimidin-2-yl)amino]-5-methylphenyl}-1H-imidazol-4-yl)-2-hydroxypropanoic acid] | ≤ 100 nM | 
Cc1cc(Nc2nccc(C(F)(F)F)n2)cc(-n2cnc([C@]3(O)CC[C@](C)(C(=O)O)CC3)c2)c1 [Example 20, trans-4-hydroxy-1-methyl-4-[1-(3-methyl-5-{[4-(trifluoromethyl)-pyrimidin-2-yl]amino)-phenyl)-1H-imidazol-4-yl]cyclohexanecarboxylic acid] | ≤ 100 nM | 
CCOC(=O)C1(C)CCC(O)(c2cn(-c3cc(C)cc(Nc4nccc(C(F)(F)F)n4)c3)cn2)CC1 (stereo not drawn) [Example 22, Ethyl trans-4-hydroxy-1-methyl-4-[1-(3-methyl-5-{[4-(trifluoromethyl)pyrimidin-2-yl]amino}phenyl)-1H-imidazol-4-yl]cyclohexanecarboxylate] | ≤ 100 nM | 
Cc1cc(Nc2nccc(C(F)(F)F)n2)cc(-n2cnc([C@]3(O)CC[C@@H](C(=O)N4CCOCC4)CC3)c2)c1 [Example 30, cis-1-[1-(3-methyl-5-{[4-(trifluoromethyl)pyrimidin-2-yl]amino}phenyl)-1H-imidazol-4-yl]-4-(morpholin-4-ylcarbonyl)cyclohexanol] | ≤ 100 nM | 
Cc1cc(Nc2nccc(C(F)(F)F)n2)cc(-n2cnc(C3(O)CCC(C(=O)N4CCCC4)CC3)c2)c1 (stereo not drawn) [Example 31, cis-1-[1-(3-methyl-5-{[4-(trifluoromethyl)pyrimidin-2-yl]amino}phenyl)-1H-imidazol-4-yl]-4-(pyrrolidin-1-ylcarbonyl)cyclohexanol] | ≤ 100 nM | 
Cc1cc(Nc2nccc(C(F)(F)F)n2)cc(-n2cnc([C@]3(O)CC[C@@H](C(=O)N(C)C)CC3)c2)c1 [Example 32, cis-4-hydroxy-N,N-dimethyl-4-[1-(3-methyl-5-{[4-(trifluoromethyl)-pyrimidin-2-yl]amino}-phenyl)-1H-imidazol-4-yl]cyclohexane-carboxamide] | ≤ 100 nM | 

More lines, now with the values ahead:

IC50 (read-out: rhSYK Activity) | IC50 (read-out: rhSYK IC50) | Structure (SMILES)
≤ 100 nM | 6.1 nM | CNC(=O)[C@H]1CC[C@](O)(c2cn(-c3cc(C)cc(Nc4nccc(C(F)(F)F)n4)c3)cn2)CC1 [Example 1, Cis-4-hydroxy-N-methyl-4-[1-(3-methyl-5-{[4-(trifluoromethyl)pyrimidin-2-yl]amino}phenyl)-1H-imidazol-4-yl]cyclohexanecarboxamide]
≤ 100 nM |  | Cc1cc(Nc2cc(C(F)(F)F)ccn2)nc(-n2cnc([C@]3(O)CC[C@H](CC(=O)O)CC3)c2)c1 [Example 13, {trans-4-hydroxy-4-[1-(4-methyl-6-{[4-(trifluoromethyl)pyridin-2-yl]amino}pyridin-2-yl)-1H-imidazol-4-yl]cyclohexyl}acetic acid]
≤ 100 nM | 0.861 nM | Cc1cc(Nc2cc(C(F)(F)F)ccn2)nc(-n2cnc([C@]3(O)CC[C@@H](CC(=O)O)CC3)c2)c1 [Example 14, {cis-4-hydroxy-4-[1-(4-methyl-6-{[4-(trifluoromethyl)pyridin-2-yl]amino}pyridin-2-yl)-1H-imidazol-4-yl]cyclohexyl}acetic acid]
≤ 100 nM |  | Cc1cc(Nc2nccc(C(F)(F)F)n2)cc(-n2cnc([C@]3(O)CC[C@H](CC(=O)O)CC3)c2)c1 [Example 15, {trans-4-hydroxy-4-[1-(3-methyl-5-{[4-(trifluoromethyl)pyrimidin-2-yl]amino}phenyl)-1H-imidazol-4-yl]-cyclohexyl}acetic acid]
≤ 100 nM | 1.64 nM | Cc1cc(Nc2nccc(C(F)(F)F)n2)cc(-n2cnc([C@]3(O)CC[C@@H](CC(=O)O)CC3)c2)c1 [Example 16, {cis-4-hydroxy-4-[1-(3-methyl-5-{[4-(trifluoromethyl)pyrimidin-2-yl]amino}phenyl)-1H-imidazol-4-yl]-cyclohexyl}acetic acid]
≤ 100 nM |  | COC(=O)C[C@H]1CC[C@@](O)(c2cn(-c3cc(C)cc(Nc4nccc(C(F)(F)F)n4)c3)cn2)CC1 [Example 17, Methyl {trans-4-hydroxy-4-[1-(3-methyl-5-{[4-(trifluoromethyl)pyrimidin-2-yl]amino}phenyl)-1H-imidazol-4-yl]-cyclohexyl}acetate]
≤ 100 nM |  | COC(=O)C[C@H]1CC[C@](O)(c2cn(-c3cc(C)cc(Nc4nccc(C(F)(F)F)n4)c3)cn2)CC1 [Example 18, Methyl {cis-4-hydroxy-4-[1-(3-methyl-5-{[4-(trifluoromethyl)pyrimidin-2-yl]amino}phenyl)-1H-imidazol-4-yl]-cyclohexyl}acetate]
≤ 100 nM |  | CCOC(=O)C(C)(C)[C@H]1CC[C@](O)(c2cn(-c3cc(C)cc(Nc4cc(C(F)(F)F)ccn4)n3)cn2)CC1 [Example 23, Ethyl 2-{cis-4-hydroxy-4-[1-(4-methyl-6-{[4-(trifluoromethyl)pyridin-2-yl]amino}pyridin-2-yl)-1H-imidazol-4-yl]cyclohexyl}-2-methylpropanoate]
100 to 1000 nM |  | CCOC(=O)C(C)(C)C1CCC(O)(c2cn(-c3cc(C)cc(Nc4cc(C(F)(F)F)ccn4)n3)cn2)CC1 (stereo not drawn) [Example 24, Ethyl 2-{trans-4-hydroxy-4-[1-(4-methyl-6-{[4-(trifluoromethyl)-pyridin-2-yl]amino}-pyridin-2-yl)-1H-imidazol-4-yl]-cyclohexyl}-2-methylpropanoate]
≤ 100 nM |  | Cc1cc(Nc2cc(C(F)(F)F)ccn2)nc(-n2cnc([C@]3(O)CC[C@H](C(=O)O)CC3)c2)c1 [Example 26, trans-4-hydroxy-4-[1-(4-methyl-6-{[4-(trifluoromethyl)pyridin-2-yl]amino}pyridin-2-yl)-1H-imidazol-4-yl]cyclohexanecarboxylic acid]
≤ 100 nM | 0.757 nM | Cc1cc(Nc2cc(C(F)(F)F)ccn2)nc(-n2cnc([C@]3(O)CC[C@@H](C(=O)O)CC3)c2)c1 [Example 27, cis-4-hydroxy-4-[1-(4-methyl-6-{[4-(trifluoromethyl)pyridin-2-yl]amino}pyridin-2-yl)-1H-imidazol-4-yl]cyclohexanecarboxylic acid]
≤ 100 nM |  | CCOC(=O)[C@H]1CC[C@@](O)(c2cn(-c3cc(C)cc(Nc4cc(C(F)(F)F)ccn4)n3)cn2)CC1 [Example 28, Ethyl trans-4-hydroxy-4-[1-(4-methyl-6-{[4-(trifluoromethyl)pyridin-2-yl]amino}pyridin-2-yl)-1H-imidazol-4-yl]cyclohexane-carboxylate]
≤ 100 nM |  | CCOC(=O)[C@H]1CC[C@](O)(c2cn(-c3cc(C)cc(Nc4cc(C(F)(F)F)ccn4)n3)cn2)CC1 [Example 29, Ethyl cis-4-hydroxy-4-[1-(4-methyl-6-{[4-(trifluoromethyl)pyridin-2-yl]amino}pyridin-2-yl)-1H-imidazol-4-yl]cyclohexane-carboxylate]
≤ 100 nM |  | Cc1cc(Nc2nccc(C(F)(F)F)n2)cc(-n2cnc([C@]3(O)CC[C@H](C(N)=O)CC3)c2)c1 [Example 33, trans-4-hydroxy-4-[1-(3-methyl-5-{[4-(trifluoro-methyl)pyrimidin-2-yl]amino}phenyl)-1H-imidazol-4-yl]-cyclohexanecarboxamide]
≤ 100 nM |  | Cc1cc(Nc2nccc(C(F)(F)F)n2)cc(-n2cnc([C@]3(O)CC[C@@H](C(N)=O)CC3)c2)c1 [Example 34, cis-4-hydroxy-4-[1-(3-methyl-5-{[4-(trifluoromethyl)-pyrimidin-2-yl]amino}phenyl)-1H-imidazol-4-yl]-cyclohexanecarboxamide]
